Numbered stars: 1 amine (or outer) side, 2 acyl side, 3 side chain; on linkers, the order of the positions; unused ones are H or OH. Square brackets hold non-standard residues; d marks the D form. Side chains are listed from the residue outwards. Peptide text beside a SMILES is read from it. * marks the point of attachment. Ethylenediamine = C(CN[*:2])N[*:1]; cisHyp = O=C(O)[C@@H]1C[C@H](O)CN1; Hyp = O=C(O)[C@@H]1C[C@@H](O)CN1; NHCH2CH2NMe2 = CN(C)CCN*; CO = O=C([*:1])[*:2]; Bn = c1ccc(C*)cc1
What was measured:
hSST-2 = hSST-2 (Homo sapiens, UniProt P30874); assay: competition binding assay, membranes of CHO cells expressing hSST-2, [125I-Tyr3]-octreotide; conditions: competition with [125I-Tyr3]-octreotide; read-out: IC50 (nM) hSSTR-2
Chain of hSST-2 (P30874 whole entry): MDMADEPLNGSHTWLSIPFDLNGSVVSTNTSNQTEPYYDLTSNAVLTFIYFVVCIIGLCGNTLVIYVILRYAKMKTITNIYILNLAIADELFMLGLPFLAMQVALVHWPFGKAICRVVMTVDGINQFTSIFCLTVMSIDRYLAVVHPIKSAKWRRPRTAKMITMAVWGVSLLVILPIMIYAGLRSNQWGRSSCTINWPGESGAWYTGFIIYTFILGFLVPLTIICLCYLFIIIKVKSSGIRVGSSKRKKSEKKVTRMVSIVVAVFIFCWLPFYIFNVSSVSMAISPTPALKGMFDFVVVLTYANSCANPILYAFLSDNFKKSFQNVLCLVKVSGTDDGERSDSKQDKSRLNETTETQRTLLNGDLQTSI
Procedure: (§1) The binding assays may be carried out as disclosed hereunder using membranes prepared from hSST-1, hSST-2, hSST-3, hSST-4 or hSST-5 selective cell lines, e.g. CHO cells stably expressing hSST-1, hSST-2, hSST-3, hSST-4 or hSST-5.
(§2) Brain or pituitary tissue is used in which hSST are visualized with e.g. in situ hybridization and/or receptor autoradiography. Membranes are prepared according to known methods, e.g. as disclosed by J C. Reubi et al. in J. Clin. Endocrinol. Metab. 1987, 65, 1127-1137. Membranes prepared from hSST selective cell lines, e.g. CHO cells stably expressing hSST-1 or hSST-2 or hSST-3 or hSST-4 or hSST-5 are incubated in triplicate in a total volume of 300 μl at 22° C. for 30 min with increasing concentrations of [^125 I-Tyr^3 ]-octreotide in 10 mmol/l Hepes buffer (pH 7.6) containing 0.5% BSA. The incubation is terminated by rapid filtration through Whatman GF/B glass fiber filters, which are then washed four times each with 5 ml ice cold 10 mmol/l Tris/150 mmol/l NaCl. The filters are counted in a LKB counter at 78% counting efficiency. Specific binding is total binding minus non-specific binding in the presence of 1 μmol/l somatostatin-14. The experiments are carried out in triplicate. The affinity constant (KD) and number of binding sites are calculated from Scatchard plots of the data.
(§3) The COMPOUNDS OF THE INVENTION, e.g. as indicated above, respectively, have in the above binding assays towards hsST-1, hSST-2, hSST-3, hSST-4 and/or hSST-5 an IC50 in the nMolar range, preferably an IC50 of from 0.1 to 10 nM (IC50 =concentration for half-maximal inhibition in a competition binding assay using [^125 I-Tyr^3 ]-octreotide the same radioligand as indicated above).

hSST-5 = hSST-5 (Homo sapiens, UniProt P35346); assay: competition binding assay, membranes of CHO cells expressing hSST-5, [125I-Tyr3]-octreotide; conditions: competition with [125I-Tyr3]-octreotide; read-out: IC50 (nM) hSSTR-5
Chain of hSST-5 (P35346 whole entry): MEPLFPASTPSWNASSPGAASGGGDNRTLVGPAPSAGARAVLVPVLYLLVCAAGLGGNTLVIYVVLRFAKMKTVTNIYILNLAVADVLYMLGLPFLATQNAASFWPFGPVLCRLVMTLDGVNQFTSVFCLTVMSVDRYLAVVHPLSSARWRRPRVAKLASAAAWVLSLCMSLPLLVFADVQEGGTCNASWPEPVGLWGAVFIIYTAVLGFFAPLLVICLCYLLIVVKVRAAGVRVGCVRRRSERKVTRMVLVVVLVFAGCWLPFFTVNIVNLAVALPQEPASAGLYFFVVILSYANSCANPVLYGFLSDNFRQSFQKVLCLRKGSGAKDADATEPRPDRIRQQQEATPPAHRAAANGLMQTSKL
Procedure: as §1, §2, §3

hSST-3 = hSST-3 (Homo sapiens, UniProt P32745); assay: competition binding assay, membranes of CHO cells expressing hSST-3, [125I-Tyr3]-octreotide; conditions: competition with [125I-Tyr3]-octreotide; read-out: IC50 (nM) hSSTR-3
Chain of hSST-3 (P32745 whole entry): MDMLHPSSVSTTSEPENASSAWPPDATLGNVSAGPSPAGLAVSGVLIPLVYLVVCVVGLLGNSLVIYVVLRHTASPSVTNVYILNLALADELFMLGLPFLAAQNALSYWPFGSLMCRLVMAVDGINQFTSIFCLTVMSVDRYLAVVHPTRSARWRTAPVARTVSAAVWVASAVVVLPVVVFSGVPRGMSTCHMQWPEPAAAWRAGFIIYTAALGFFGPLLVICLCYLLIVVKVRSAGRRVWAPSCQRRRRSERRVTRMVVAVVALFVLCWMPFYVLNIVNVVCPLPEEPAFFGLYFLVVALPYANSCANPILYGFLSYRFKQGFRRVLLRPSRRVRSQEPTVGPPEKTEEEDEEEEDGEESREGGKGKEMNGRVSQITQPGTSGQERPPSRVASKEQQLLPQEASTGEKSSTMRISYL
Procedure: as §1, §2, §3

hSST-1 = hSST-1 (Homo sapiens, UniProt P30872); assay: competition binding assay, membranes of CHO cells expressing hSST-1, [125I-Tyr3]-octreotide; conditions: competition with [125I-Tyr3]-octreotide; read-out: IC50 (nM) hSSTR-1
Chain of hSST-1 (P30872 whole entry): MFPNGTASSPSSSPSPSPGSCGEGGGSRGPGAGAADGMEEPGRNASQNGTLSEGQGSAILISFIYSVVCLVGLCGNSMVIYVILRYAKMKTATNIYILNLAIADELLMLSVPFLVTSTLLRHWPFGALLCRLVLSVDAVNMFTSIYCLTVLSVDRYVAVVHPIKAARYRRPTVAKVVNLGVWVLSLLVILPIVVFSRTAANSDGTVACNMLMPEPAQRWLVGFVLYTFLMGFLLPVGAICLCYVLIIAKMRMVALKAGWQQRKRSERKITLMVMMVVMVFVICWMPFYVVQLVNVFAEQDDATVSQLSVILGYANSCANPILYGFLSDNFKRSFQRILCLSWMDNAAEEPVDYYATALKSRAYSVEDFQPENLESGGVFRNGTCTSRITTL
Procedure: as §1, §2, §3

hSST-4 = hSST-4 (Homo sapiens, UniProt P31391); assay: competition binding assay, membranes of CHO cells expressing hSST-4, [125I-Tyr3]-octreotide; conditions: competition with [125I-Tyr3]-octreotide; read-out: IC50 (nM) hSSTR-4
Chain of hSST-4 (P31391 whole entry): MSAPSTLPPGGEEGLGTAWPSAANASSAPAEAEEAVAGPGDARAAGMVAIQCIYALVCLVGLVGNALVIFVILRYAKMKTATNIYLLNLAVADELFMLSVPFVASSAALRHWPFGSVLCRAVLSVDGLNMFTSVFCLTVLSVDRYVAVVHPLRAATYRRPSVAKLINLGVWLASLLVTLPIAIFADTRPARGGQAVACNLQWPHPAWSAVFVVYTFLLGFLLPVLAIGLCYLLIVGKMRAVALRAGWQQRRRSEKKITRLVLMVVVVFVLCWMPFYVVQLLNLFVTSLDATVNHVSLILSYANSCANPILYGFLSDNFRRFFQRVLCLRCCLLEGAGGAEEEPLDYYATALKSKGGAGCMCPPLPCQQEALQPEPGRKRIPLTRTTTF

[1] = system: GH release from cultured pituitary cells; assay: inhibition of GH release in vitro from cultured pituitary cells; assay type: cell-based; conditions: rat pituitary cells, 3×10^-10 M growth hormone releasing factor, two to four hours
Procedure: Furthermore, the COMPOUNDS OF THE INVENTION show GH-release inhibiting activity as indicated by the inhibition of GH release in vitro from cultured pituitary cells. Anterior pituitary glands from adult male rats are cut into small pieces and dispersed using 0.1% trypsin in 20 mM HEPES buffer. The dispersed cells are cultured for four days in MEM (Gibco) supplemented with 5% fetal calf serum, 5% horse serum, 1 mM NaHCO3, 2.5 nM dexamethasone, 2.5 mg/ml insulin and 20 U/ml Pen/Strep. On the day of the experiment the attached cells are washed two times with Krebs-Ringer medium buffered with 20 mM HEPES and supplemented with 5 mM glucose and 0.2% BSA. Subsequently the cells are incubated for two to four hours with the test compound in the presence of 3×10^-10 M growth hormone releasing factor. The amount of growth hormone released into the medium is measured by RIA.

[2] = system: AR42J rat pancreatic tumor cell line; assay: AR42J proliferation test; assay type: cell-based; conditions: exposure 2 to 5 days; ± SE; read-out: IC50, inhibition of proliferation of AR42J tumor cells
Procedure: The AR42J rat pancreatic tumor cell line is derived from an azaserine-induced exocrine pancreatic tumor (Jessop and Hay, 1980). The absence of mycoplasma is regularly checked using bisbenzimide staining and the GenProbe hybridization assay (San Diego, Calif.). Cultures are propagated in DMEM supplemented with 10% fetal calf serum (FCS) at 5% CO2. Cells are grown in the absence of antibiotics or antifungal agents. Subconfluent AR42J cells are trypsinized, diluted in DMEM +2.5% FCS and seeded in uncoated 96-well plates. After a 48-hr incubation period (Day 0), the number of cells in a separate control plate is determined both by counting cells in a Coulter counter and by the SRB calorimetric assay. The cells are then exposed to the compound to be tested for 2 to 5 days at various concentrations and then counted.

Row | Compound | IC50 (hSST-2) [nM] | IC50 (hSST-5) [nM] | IC50 (hSST-3) [nM] | IC50 (hSST-1) [nM] | IC50 (hSST-4) [nM] | IC50 [1] [nM] | IC50 [2] [nM]
1 | NCCCC[C@@H]1NC(=O)[C@@H](Cc2c[nH]c3ccccc23)NC(=O)[C@H](Cc2ccccc2)NC(=O)[C@@H]2C[C@@H](O)CN2C(=O)[C@H](Cc2ccccc2)NC(=O)[C@H](Cc2ccc(OCc3ccccc3)cc2)NC1=O [Example 1, Cyclo [HyPro-Phe-DTrp-Lys-Tyr(Bzl)-Phe]] (cyclo(F[Hyp]F[dW]KY(Bn))) | 0.94 | 0.35 | 1.9 | 63 | 320 | – | –
2 | NCCCC[C@@H]1NC(=O)[C@@H](Cc2c[nH]c3ccccc23)NC(=O)[C@H](Cc2ccccc2)NC(=O)[C@@H]2C[C@@H](OC(=O)NCCN)CN2C(=O)[C@H](Cc2ccccc2)NC(=O)[C@H](Cc2ccc(OCc3ccccc3)cc2)NC1=O [Example 2, Cyclo[{4-(NH2 --C2 H4 --NH--CO--O--)Pro}-Phe-DTrp-Lys-Tyr(Bzl)-Phe]] (cyclo(F[Hyp]([CO-Ethylenediamine])F[dW]KY(Bn))) | 2.3 | 0.46 | 0.93 | 4.6 | 490 | 0.4 | 0.7 ± 0.3
3 | NCCCC[C@@H]1NC(=O)[C@@H](Cc2c[nH]c3ccccc23)NC(=O)[C@H](Cc2ccccc2)NC(=O)[C@@H]2C[C@@H](OC(=O)NCCN)CN2C(=O)[C@H](Cc2ccccc2)NC(=O)[C@H](COCc2ccccc2)NC1=O [Example 31] (cyclo(F[Hyp]([CO-Ethylenediamine])F[dW]KS(Bn))) | 0.8 | 2.9 | 3.9 | 0.5 | – | – | –
4 | NCCCC[C@@H]1NC(=O)[C@@H](Cc2c[nH]c3ccccc23)NC(=O)[C@H](Cc2ccccc2)NC(=O)[C@@H]2C[C@H](OC(=O)NCCN)CN2C(=O)[C@H](Cc2ccccc2)NC(=O)[C@H](COCc2ccccc2)NC1=O [Example 32] (cyclo(F[cisHyp]([CO-Ethylenediamine])F[dW]KS(Bn))) | 0.13 | 2 | 57 | 3.8 | – | – | –
5 | CN(C)CCNC(=O)O[C@@H]1C[C@H]2C(=O)N[C@@H](Cc3ccccc3)C(=O)N[C@H](Cc3c[nH]c4ccccc34)C(=O)N[C@@H](CCCCN)C(=O)N[C@@H](COCc3ccccc3)C(=O)N[C@@H](Cc3ccccc3)C(=O)N2C1 [Example 36] (cyclo(F[Hyp]([CO-NHCH2CH2NMe2])F[dW]KS(Bn))) | 1.3 | 4.5 | 2.4 | 0.6 | – | – | –

— patent publication US6225284A, “Somatostatin peptides” (Novartis AG, priority 1995, dated 2001)
